# Earlier results as cited in US5648396A, “Methods for treating depression and other disorders using optically pure R (-) fluoxetine and monoamine oxidase inhibitor” (Sepracor Inc., priority 1995, dated 1997).
# “Also recorded” adds a separate entry of the source.
# Columns and labels:
# Feeding = conditions: rel. potency R vs S, Wong et al 1988
# 5HT1A receptor = conditions: relative to effect on 5HT uptake
# α1A receptor = conditions: relative to effect on 5HT uptake
# D2 receptor = conditions: relative to effect on 5HT uptake
# uptake of norepinephrine = conditions: relative to effect on 5HT uptake
# HT2 receptor = conditions: relative to effect on 5HT uptake
# α2 receptor = conditions: relative to effect on 5HT uptake
# Saccharine palatability = conditions: Robertson et al 1988
# acetic acid writhing = conditions: Robertson et al 1988
# 5HT1 receptor = conditions: relative to effect on 5HT uptake
# [1] = system: writhing (morphine potentiation); conditions: Robertson et al 1988
# β receptor = conditions: relative to effect on 5HT uptake
# D1 receptor = conditions: relative to effect on 5HT uptake
# PCPA effect on 5HT = conditions: for Duration of Inhibition of PCPA 5HT effect / Inhibition of PCPA effect on 5HT (full block): Fuller & Snoddy 1986; for Inhibition of PCPA effect on 5HT (ED50): Robertson et al 1988
# [2] = suggested
# [3] = system: dopamine turnover in striatum; conditions: in vivo
# α1 adrenergic receptors = conditions: than tricyclic antidepressants; brain tissue
# patients [4] = system: patients
# histaminergic receptors = conditions: than tricyclic antidepressants; brain tissue
# 5HIAA = conditions: acute effect; Wong et al. 1985
# patients [5] = conditions: in vivo
# [6] = racemic mixture
# [7] = L-form versus D-enantiomer
# [8] = system: morning sickness during pregnancy; conditions: control of morning sickness during pregnancy; suggested
SMILES,affinity for 5HT1A receptor (5HT1A receptor),affinity for α1A receptor (α1A receptor),affinity for D2 receptor (D2 receptor),affinity for the uptake of norepinephrine (uptake of norepinephrine),affinity for HT2 receptor (HT2 receptor),affinity for α2 receptor (α2 receptor),Inhibition of Saccharine palatability (ED50) (Saccharine palatability),Inhibition of acetic acid writhing (ED50) (acetic acid writhing),affinity for 5HT1 receptor (5HT1 receptor),Inhibition of writhing (morphine potentiation; ED50) [1],affinity for β receptor (β receptor),affinity for D1 receptor (D1 receptor),Duration of Inhibition of PCPA 5HT effect (PCPA effect on 5HT),Inhibition of PCPA effect on 5HT (ED50) (PCPA effect on 5HT),Inhibition of PCPA effect on 5HT (full block) (PCPA effect on 5HT),further results
"CNCC[C@@H](Oc1ccc(C(F)(F)F)cc1)c1ccccc1 [R-Fluoxetine, (-)N-methyl-3-phenyl-3-[(α,α,α-trifluoro-p-tolyl)-oxy]-propylamine]",relatively little affinity,relatively little affinity,relatively little affinity,relatively little affinity,relatively little affinity,relatively little affinity,6.1 mg/kg,15.3 mg/kg,relatively little affinity,3.6 mg/kg,relatively little affinity,relatively little affinity,~ 8 hr,2.1 mg/kg,~ 10 mg/kg,"Inhibition of Feeding (meal fed, 2DG) (rel. potency) (Feeding): R < S"
O=C1CC[C@H](N2C(=O)c3ccccc3C2=O)C(=O)N1 [L-enantiomer of thalidomide],,,,,,,,,,,,,,,,teratogenicity [2]: potent teratogen
CNCC[C@H](Oc1ccc(C(F)(F)F)cc1)c1ccccc1 [S-Fluoxetine],relatively little affinity,relatively little affinity,relatively little affinity,relatively little affinity,relatively little affinity,relatively little affinity,4.9 mg/kg,25.7 mg/kg,relatively little affinity,5.7 mg/kg,relatively little affinity,relatively little affinity,> 24 h,1.2 mg/kg,~ 5 mg/kg,
"CNCCC(Oc1ccc(C(F)(F)F)cc1)c1ccccc1 (racemic) [R,S-Fluoxetine]",,,,,,,,,,,,,,,,"dopamine turnover in striatum [3]: affects dopamine turnover in striatum; binding to α1 adrenergic receptors (α1 adrenergic receptors): much less potently; drug discontinuation due to headaches, nervousness, anxiety and insomnia (patients [4]; of patients treated with the drug): 5%; adverse effects (in words) (patients [4]; patients): produces a state of inner restlessness (akathisia); also recorded: severe anxiety leading to intense violent suicidal thoughts and self mutilation; also recorded: manic behavior; also recorded: nausea, diarrhea, drowsiness, decrease in libido, and/or sexual dysfunction; anticholinergic and cardiovascular side effects (patients [4]; versus tricyclic antidepressants): less anticholinergic side effects such as blurred vision, dry mouth, constipation and urinary retention; also recorded: less lowering of blood pressure, tachycardia and arrhythmias; binding to histaminergic receptors (histaminergic receptors): much less potently; levels of the intracellular serotonin metabolite 5HIAA (5HIAA): rapid reduction; wait after discontinuing fluoxetine before starting treatment with an MAOI (patients [5]): 5-6 weeks; half-life and duration of action (in words) [6]: long half-life and long duration of action"
CC(C)NC[C@H](O)COc1cccc2ccccc12 [L-form of propranolol],,,,,,,,,,,,,,,,potency relative to the D-enantiomer [7]: 100 times
O=C1CC[C@@H](N2C(=O)c3ccccc3C2=O)C(=O)N1 [D-enantiomer of thalidomide],,,,,,,,,,,,,,,,sedative effect [8]: safe and effective sedative
